Source: ChEMBL document CHEMBL1201862, “PubChem BioAssay data set” (2004)
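These data come from cells grown in 96-well plates and exposed to compound for 48 hours at five concentrations. The concentration for 50% growth inhibition is given as GI50.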 Calls of active or inactive are those of the source. No stated cut-off is given here; in the data, active = GI50 up to about 1.1 µM and inactive = higher.

Experiments:
Assay in all cases: DTP human tumour cell line panel, 48 h
[1] = tested on: T47D
[2] = tested on: A498
[3] = tested on: DU-145
[4] = tested on: SK-MEL-2
[5] = tested on: SK-MEL-5
[6] = tested on: HL-60
[7] = tested on: A549
[8] = tested on: BT-549
[9] = tested on: CAKI-1
[10] = tested on: SK-OV-3
[11] = tested on: TK-10
[12] = tested on: PC-3
[13] = tested on: MDA-MB-435
[14] = tested on: LOX IMVI
[15] = tested on: RPMI-8226
[16] = tested on: HCT-15
[17] = tested on: SR
[18] = tested on: NCI-H460
[19] = tested on: SNB-19
[20] = tested on: NCI-H522

| Structure (SMILES) | GI50 [1] | GI50 [2] | GI50 [3] | GI50 [4] | GI50 [5] | GI50 [6] | GI50 [7] | GI50 [8] | GI50 [9] | GI50 [10] | GI50 [11] | GI50 [12] | GI50 [13] | GI50 [14] | GI50 [15] | GI50 [16] [µM] | GI50 [17] | GI50 [18] | GI50 [19] | GI50 [20] |
| --- | --- | --- | --- | --- | --- | --- | --- | --- | --- | --- | --- | --- | --- | --- | --- | --- | --- | --- | --- | --- |
| O=C(c1ccccc1)c1ccc(N2C(=O)/C(=C/Cc3ccco3)N=C2c2ccccc2)c(N2C(=O)/C(=C/Cc3ccco3)N=C2c2ccccc2)c1 | 36.4 µM (inactive) | 51.5 µM (inactive) | 30 µM (inactive) | 25.5 µM (inactive) | 26.1 µM (inactive) | 15.3 µM (inactive) | 35.8 µM (inactive) | 35.6 µM (inactive) | 67.5 µM (inactive) | 30.5 µM (inactive) | 55.8 µM (inactive) | 39.8 µM (inactive) | 29.2 µM (inactive) | 24.2 µM (inactive) | 27.8 µM (inactive) | 45 | 28.6 µM (inactive) | 36.6 µM (inactive) | 47.4 µM (inactive) |  |
| CN(C)c1ccc(/C=C(\NC(=O)c2ccccc2)C(=O)Nc2ccccc2C(=O)NN2C(=O)CSC2c2ccc(N(C)C)cc2)cc1 (centres undefined) | > 100 µM (inactive) | > 100 µM (inactive) | > 100 µM (inactive) | > 100 µM (inactive) | 94.6 µM (inactive) | > 100 µM (inactive) | > 100 µM (inactive) | > 100 µM (inactive) | > 100 µM (inactive) | > 100 µM (inactive) |  | > 100 µM (inactive) | 66.5 µM (inactive) | > 100 µM (inactive) | > 100 µM (inactive) | 92.7 | > 100 µM (inactive) | 10.7 µM (inactive) | > 100 µM (inactive) | 40.6 µM (inactive) |
| Cc1ccc(C2=Nc3cc(C)c(Cl)cc3S(=O)(=O)NN2)cc1 | 54 µM (inactive) | > 100 µM (inactive) | > 100 µM (inactive) |  | > 100 µM (inactive) | 34.4 µM (inactive) | 57.8 µM (inactive) | > 100 µM (inactive) | 27.9 µM (inactive) | > 100 µM (inactive) | 49.5 µM (inactive) | > 100 µM (inactive) | > 100 µM (inactive) | > 100 µM (inactive) | > 100 µM (inactive) | > 100 | 20 µM (inactive) | > 100 µM (inactive) | 44.6 µM (inactive) | > 100 µM (inactive) |
| FC(F)=C(c1ccc(-c2ccc(Cl)cc2)cc1)C(F)(F)F | 28.2 µM (inactive) | 16.8 µM (inactive) | 18.7 µM (inactive) | 23.7 µM (inactive) | 18.2 µM (inactive) | 45.3 µM (inactive) | 17.9 µM (inactive) | 18.2 µM (inactive) | 19.8 µM (inactive) | 21 µM (inactive) | 15.8 µM (inactive) | 17.3 µM (inactive) | 20.2 µM (inactive) |  | 23.3 µM (inactive) | 20.4 | 23.3 µM (inactive) | 17.7 µM (inactive) | 19.3 µM (inactive) | 20.3 µM (inactive) |
| CCOc1ccc(/N=N/c2ccc3cc(/C(C)=N/NC(=O)/C(C#N)=C\c4ccc(N(CCC#N)CCC#N)cc4)c(=O)oc3c2)cc1 | > 10 µM (inactive) | > 10 µM (inactive) | > 10 µM (inactive) | > 10 µM (inactive) | > 10 µM (inactive) | > 10 µM (inactive) | > 10 µM (inactive) | > 10 µM (inactive) | > 10 µM (inactive) | > 10 µM (inactive) | > 10 µM (inactive) | > 10 µM (inactive) | > 10 µM (inactive) | > 10 µM (inactive) | > 10 µM (inactive) | > 10 | > 10 µM (inactive) | > 10 µM (inactive) | > 10 µM (inactive) | > 10 µM (inactive) |
| Nc1nc(N)c2c(n1)CCC(S(=O)(=O)c1ccc3ccccc3c1)C2 (centres undefined) | 14.5 µM (inactive) | 24.9 µM (inactive) | 9.59 µM (inactive) |  | 2.55 µM (inactive) | 13.5 µM (inactive) | 0.54 µM (active) | 6.65 µM (inactive) | 6 µM (inactive) | 33.3 µM (inactive) | 4.57 µM (inactive) | 17.6 µM (inactive) | 0.714 µM (active) | 0.706 µM (active) | 12.5 µM (inactive) | 2.38 | 4.08 µM (inactive) | 0.891 µM (active) | 3.61 µM (inactive) |  |
| COc1ccc(C2(CC(C)C)CCNC2)cc1OC (centres undefined) | 31.5 µM (inactive) | > 100 µM (inactive) | > 100 µM (inactive) | > 100 µM (inactive) | > 100 µM (inactive) | > 100 µM (inactive) | > 100 µM (inactive) | > 100 µM (inactive) | > 100 µM (inactive) | > 100 µM (inactive) | > 100 µM (inactive) | > 100 µM (inactive) | > 100 µM (inactive) | > 100 µM (inactive) | 61.1 µM (inactive) | > 100 | 76.4 µM (inactive) | > 100 µM (inactive) | > 100 µM (inactive) | > 100 µM (inactive) |
| COC(=O)c1c2c(cc3c1CC1(C3)Cc3ccc4c(c3C1=O)CCC4)CCC2 (centres undefined) | 5.13 µM (inactive) | 3.42 µM (inactive) | 4.65 µM (inactive) | 3.98 µM (inactive) | 2.38 µM (inactive) | 2.52 µM (inactive) | 4.88 µM (inactive) | 2.52 µM (inactive) | 2.26 µM (inactive) | 3.93 µM (inactive) | 8.49 µM (inactive) | 1.79 µM (inactive) | 0.6 µM (active) | 3.9 µM (inactive) | 3.23 µM (inactive) | 3.58 | 1.78 µM (inactive) | 4.84 µM (inactive) | 4.12 µM (inactive) | 1.66 µM (inactive) |
| Cc1ccccc1N1C(N)=C(C#N)C(C#N)(C#N)C1c1ccccc1 (centres undefined) | 12.5 µM (inactive) | 16.6 µM (inactive) | 16.7 µM (inactive) | 25.9 µM (inactive) | 15.8 µM (inactive) | 18.5 µM (inactive) | 26.1 µM (inactive) | 13.6 µM (inactive) | 25.9 µM (inactive) | 31.3 µM (inactive) | 14.6 µM (inactive) | 24.6 µM (inactive) | 17.7 µM (inactive) | 17.7 µM (inactive) | 19.2 µM (inactive) | 16.6 | 23.9 µM (inactive) |  | 20 µM (inactive) | 15.3 µM (inactive) |
| Cc1cn(CCCCCOC(=O)NC(CCCNC(=N)N)C(=O)O)c(=O)[nH]c1=O (centres undefined) | > 100 µM (inactive) | 24.9 µM (inactive) | 37.5 µM (inactive) | > 100 µM (inactive) |  | 17 µM (inactive) | 49.2 µM (inactive) | > 100 µM (inactive) | 37.1 µM (inactive) | 48.9 µM (inactive) | > 100 µM (inactive) | 40.8 µM (inactive) | 6.32 µM (inactive) | 53.6 µM (inactive) | 11.7 µM (inactive) | 28.1 | 2.57 µM (inactive) | 38.2 µM (inactive) | 40.8 µM (inactive) |  |
| C[C@@H]1CC(=O)[C@@]2(C)[C@](O)(CCC3O[C@]32C)[C@@]12CC(c1ccoc1)OC2=O (some centres undefined) | > 100 µM (inactive) | 94.4 µM (inactive) | > 100 µM (inactive) | > 100 µM (inactive) | 44.3 µM (inactive) | 24.9 µM (inactive) | > 100 µM (inactive) | 68.2 µM (inactive) | 91 µM (inactive) | > 100 µM (inactive) | > 100 µM (inactive) | > 100 µM (inactive) | 42 µM (inactive) | 35.2 µM (inactive) | 33.3 µM (inactive) | 37.8 | 30.3 µM (inactive) | 66.7 µM (inactive) | > 100 µM (inactive) | 45.6 µM (inactive) |
| CC1=C[C@@H](C)C[C@]2(C)CC[C@H](O2)[C@]23CC[C@](C(=O)O)(C[C@H](O2)[C@@H]2O[C@@](C)(CC2=O)[C@@H](O)[C@H]2CC[C@@]4(CCC[C@@H](O4)[C@H](C)C(=O)O[C@H]4C[C@H]([C@]5(O)OCC[C@H](C)[C@@H]5O)O[C@H]4C=C1)O2)O3 | > 10 µM (inactive) | > 5.75 µM (inactive) | > 10 µM (inactive) | > 6.85 µM (inactive) | > 7.23 µM (inactive) | > 10 µM (inactive) | > 10 µM (inactive) | > 7.83 µM (inactive) | > 10 µM (inactive) | > 10 µM (inactive) | > 7.62 µM (inactive) | > 10 µM (inactive) | > 10 µM (inactive) | > 6.92 µM (inactive) | > 10 µM (inactive) | > 10 | > 10 µM (inactive) | > 10 µM (inactive) | > 10 µM (inactive) | > 7.71 µM (inactive) |
| Cc1ccc2c(O)cc(-c3cccc4ccccc34)nc2n1 | 67.8 µM (inactive) | 0.0101 µM (active) | 0.0392 µM (active) | 0.0182 µM (active) | < 0.0117 µM (active) | < 0.01 µM (active) | 0.032 µM (active) | 0.652 µM (active) | 0.353 µM (active) | 0.021 µM (active) |  | 0.0282 µM (active) | < 0.01 µM (active) | 0.0229 µM (active) | 0.0227 µM (active) | 0.0206 | < 0.01 µM (active) | 0.0342 µM (active) | 0.0445 µM (active) | < 0.0187 µM (active) |
| O=C(/C=C/c1ccc(O)cc1)NCCc1ccc(O)cc1 [N-P-COUMAROYL TYRAMINE] | > 12.5 µM (inactive) | > 12.5 µM (inactive) | 12 µM (inactive) | > 12.5 µM (inactive) | > 12.5 µM (inactive) | 3.58 µM (inactive) | 4.06 µM (inactive) | 7.53 µM (inactive) | 10.2 µM (inactive) |  | 3.72 µM (inactive) | 8.57 µM (inactive) | > 12.5 µM (inactive) | > 12.5 µM (inactive) | 6.95 µM (inactive) | > 12.5 | 4.02 µM (inactive) | 11.2 µM (inactive) | > 12.5 µM (inactive) | 3.38 µM (inactive) |
